Reference: US20240358727A1, “MICROSCALE THERMOPHORESIS TO EVALUATE CHANNEL LIPID INTERACTIONS AND METHODS OF TREATING NAV CHANNELS RELATED DISEASES” (Northeastern University, priority 2023, published 2024)
“Also recorded” adds a separate entry of the source.

Target: T1, Nav1.5 channel currents (INa, ILATE) in M3q iPS-CMs (Homo sapiens, UniProt Q14524)
T1 construct: host or cells: human iCell^2 iPS cardiomyocytes (transfected with M3q DREADD in A5; endogenous AT1 receptor in A7)
Assay: Whole-cell patch-clamp of INa and ILATE in M3q-DREADD iPS-CMs activated with CNO
Type: cell-based
Conditions: 100 nM CNO
Method: Control is CNO application to cells with no M3q. Mean±SD % fluorescence change for 20 cells per group; an example photobleaching montage is inset. […] Leftwards shifts in each parameter are precluded by U73122 or by 200 μM diC8-PIP2 in the pipette but are not sensitive to staurosporine or BAPTA. The cells were perfused with an extracellular solution containing (in mM): 130 NaCl, 5 CsCl, 1.2 MgCl2, 1.5 CaCl2), 8 Glucose, 10 HEPES (pH7.4). […] nitrendipine was added to the recording solution to block Ca^2+ flux through Cav channels. Patch pipettes with a resistance of 2.5-4 MQ are filled with a solution containing (in mM): 60 CsCl, 80 CsF, 2 MgCl2, 10 EGTA, 5 Na2ATP, 5 HEPES (pH 7.4). Currents were low pass (Bessel) filtered at 9 kHz and digitized at 50 kHz and were collected from cells with a series resistance <15 MQ; this was compensated by 70%.
Results. Studies are designed to evaluate if hydrolysis of PIP2 modulates Nav1.5 channel currents in cardiomyocytes. To perform these experiments, we used human iPS cardiomyocytes (iCell^2 iPS-CMs) from Fuji-Film Cellular Dynamics. These iPS-CMs are a valuable model system for human cardiomyocytes that retain many of the key characteristics of the native cells. Here, we transfected the iPS-CMs to express the Gαq-coupled M3q Designer Receptors Exclusively Activated by Designer Drugs (DREADD) receptor. We use a magnetic transfection system from Oz Biosciences that we have previously employed with cardiomyocytes. First, we tested the efficacy of M3q to hydrolyze PIP2 in our model system. To accomplish this, we studied uncoupling of the PIP2 biosensor iRFP-PHPLCδ1 from the plasma membrane in response to chemogenic activation of M3q by 100 nM clozapine N-oxide (CNO, Tocris Biosciences).
These findings are consistent with our prior observations and the work using optogenetically activated PI-phosphatases to deplete PIP2 in HEK293 cells […] Xenopus laevis oocytes. […] Having established a time frame for PIP2 hydrolysis in our system, we used whole-cell patch-clamp to study INa in paired experiments, before and after chemogenic activation of M3q. Applying 100 nM CNO evoked a leftward shift in the current-voltage (I-V) relationship of INa such that peak INa shifted from −25 to −35 mV. At −35 mV, the peak current-density increased from −220±5 pA/pF to −266±4 pA/pF at −35 mV (n=8, P<0.001, paired Student's t-test). […] However, in contrast to our findings with Nav1.4, activating M3q signaling also left-shifted the steady state inactivation curve of Nav1.5 (V½SSI), from −81.4±2 to −89.7±2 mV (n=8, P<0.01, paired t-test; FIGS. 2C, 2D). These studies indicate that Nav1.5 channels are regulated by hydrolysis of PIP2 and that there are distinctions between PIP2 regulation of Nav1.5 and Nav1.4.
Next, we studied the effect of M3q-activation on ILATE by recording currents evoked by a 400 ms depolarizing pulse to −20 mV before and during receptor activation. The magnitude of ILATE represents the mean current 150-200 ms after peak INa and is expressed as a percentage of peak INa. […] The effects of M3q activation on V½ACT, V½SSI, and the development of ILATE were not affected by staurosporine (1 μM, 1-hour preincubation) or BAPTA (10 mM in the recording pipette), making a role for IP3 or DAG unlikely. […] Similar data were obtained for Nav1.5 expressed with Navβ1 and the M3q-DREADD receptor in HEK293T cells. This experiment validates that the findings are not restricted to a particular model system or cellular environment.
Measure modulation in INa and ILATE by endogenous Gαq signaling. Like native cardiomyocytes, human iPS-CMs express AT1 receptors. Here, the effects of Ang II (Tocris) on Nav1.5 channel function in iPS-CMs is tested using four whole-cell patch-clamp recording protocols. […]

T1 sequence (Q14524 whole entry): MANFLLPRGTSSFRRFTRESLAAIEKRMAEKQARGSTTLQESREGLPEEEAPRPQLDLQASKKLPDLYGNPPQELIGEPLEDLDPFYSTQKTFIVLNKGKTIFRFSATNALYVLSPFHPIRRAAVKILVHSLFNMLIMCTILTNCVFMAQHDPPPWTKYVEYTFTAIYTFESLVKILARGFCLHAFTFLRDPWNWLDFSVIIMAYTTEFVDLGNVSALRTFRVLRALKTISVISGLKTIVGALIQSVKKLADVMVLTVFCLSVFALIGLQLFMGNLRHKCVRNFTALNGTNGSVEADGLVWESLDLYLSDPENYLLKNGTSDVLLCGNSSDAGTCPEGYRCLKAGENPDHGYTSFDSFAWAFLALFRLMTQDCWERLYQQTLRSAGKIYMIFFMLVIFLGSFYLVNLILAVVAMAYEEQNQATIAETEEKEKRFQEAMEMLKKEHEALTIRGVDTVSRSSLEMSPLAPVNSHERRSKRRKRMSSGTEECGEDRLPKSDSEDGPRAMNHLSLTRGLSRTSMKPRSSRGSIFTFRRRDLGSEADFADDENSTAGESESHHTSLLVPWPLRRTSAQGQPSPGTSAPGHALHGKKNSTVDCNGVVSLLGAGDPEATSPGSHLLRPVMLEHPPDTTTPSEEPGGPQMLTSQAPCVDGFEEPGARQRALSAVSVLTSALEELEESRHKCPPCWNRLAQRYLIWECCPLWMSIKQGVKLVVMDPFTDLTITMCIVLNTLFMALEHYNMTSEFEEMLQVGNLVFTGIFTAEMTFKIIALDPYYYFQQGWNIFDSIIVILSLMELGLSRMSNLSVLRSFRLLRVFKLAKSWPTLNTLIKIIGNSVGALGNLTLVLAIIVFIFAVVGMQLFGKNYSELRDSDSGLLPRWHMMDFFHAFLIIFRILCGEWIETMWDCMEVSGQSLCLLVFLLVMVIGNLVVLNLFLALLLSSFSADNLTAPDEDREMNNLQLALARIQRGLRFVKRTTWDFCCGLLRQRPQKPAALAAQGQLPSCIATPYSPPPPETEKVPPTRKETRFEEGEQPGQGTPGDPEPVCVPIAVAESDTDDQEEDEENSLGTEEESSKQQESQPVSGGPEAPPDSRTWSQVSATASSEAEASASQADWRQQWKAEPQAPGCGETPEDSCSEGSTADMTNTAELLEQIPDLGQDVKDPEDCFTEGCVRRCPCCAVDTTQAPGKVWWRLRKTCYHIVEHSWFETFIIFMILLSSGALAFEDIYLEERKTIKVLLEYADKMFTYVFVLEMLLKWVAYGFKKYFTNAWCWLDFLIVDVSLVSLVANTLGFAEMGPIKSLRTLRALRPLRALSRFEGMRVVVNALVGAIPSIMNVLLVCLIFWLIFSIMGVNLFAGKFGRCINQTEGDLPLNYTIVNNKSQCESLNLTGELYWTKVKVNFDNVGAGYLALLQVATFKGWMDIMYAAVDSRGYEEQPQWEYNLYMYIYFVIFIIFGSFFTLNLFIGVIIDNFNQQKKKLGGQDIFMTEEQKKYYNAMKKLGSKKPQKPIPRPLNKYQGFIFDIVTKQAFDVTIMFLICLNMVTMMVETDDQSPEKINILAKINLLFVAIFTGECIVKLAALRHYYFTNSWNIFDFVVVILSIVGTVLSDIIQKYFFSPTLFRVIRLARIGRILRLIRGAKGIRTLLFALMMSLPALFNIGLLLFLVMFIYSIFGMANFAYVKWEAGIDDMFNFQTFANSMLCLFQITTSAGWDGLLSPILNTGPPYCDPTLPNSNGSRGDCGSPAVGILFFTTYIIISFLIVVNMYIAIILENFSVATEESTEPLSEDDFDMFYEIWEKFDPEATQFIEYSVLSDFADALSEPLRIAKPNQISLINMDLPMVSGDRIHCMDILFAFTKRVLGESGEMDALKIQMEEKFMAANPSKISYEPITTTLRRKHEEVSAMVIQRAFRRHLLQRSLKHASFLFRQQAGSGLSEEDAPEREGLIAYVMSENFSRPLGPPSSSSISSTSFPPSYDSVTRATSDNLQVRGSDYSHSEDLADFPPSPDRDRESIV

## CCCCCCCC(=O)OC[C@H](COP(=O)(O)O[C@@H]1[C@H](O)[C@H](O)[C@@H](OP(=O)(O)O)[C@H](OP(=O)(O)O)[C@H]1O)OC(=O)CCCCCCC [diC8-PIP2]
200 μM diC8-PIP2 in pipette
  effect on CNO-evoked increase in ILATE: precluded
  effect on CNO-evoked leftwards shifts in V½ACT and V½SSI: precluded
Staurosporine 1 μM 1-hour preincubation, BAPTA 10 mM in pipette, U73122 5 μM, diC8-PIP2 200 μM in pipette
  effect on CNO (M3q activation) effects on V½ACT, V½SSI and ILATE: blocked; also recorded: abolished
